Data as given in patent US11970497B2, “Tricyclic AKR1C3 dependent KARS inhibitors” (Novartis AG, priority 2019, dated 2024).

Legend:
Assay type in all cases: cell-based
SBC5 = test: Expanded lung cancer cell line proliferation assay; settings: Homo sapiens, SBC-5; SBC5, 72 h, average of PrestoBlue and Cell Titer Glo; AKR1C3 5.5 TPM; read-out: Absolute Qualified AC50
Source text: (§1) Cellular Proliferation Assay to Assess Compound Activity in an Expanded Panel of 57 NRF2 Pathway Mutant and Wild Type Lung Cancer Cell Lines.
(§2) Both the PrestoBlue Cell Viability Reagent and Cell Titer Glo were multiplexed together as the final assay readout. PrestoBlue is a cell permeable resazurin-based solution that utilizes the reducing power of living cells to quantitatively measure their proliferation. Cell Titer Glo measures the amount of ATP present, an indicator of metabolically active cells.
(§3) Expanded Lung Cancer Cell Line Proliferation Assay Outline, Analysis and Profiling Results
(§4) Cells were seeded into 384 well assay plates (Greiner Bio-One, Catalog #781080) using the Thermo Scientific Matrix WellMate microplate dispenser and Thermo Scientific Matrix WellMate small bore disposable tubing cartridges (Catalog #201-30002) in 30 μl of growth media (RPMI-1640 supplemented with 10% fetal bovine serum and 1% penicillin/streptomycin) per well (1000 to 2000 cells/well depending on doubling time). Following cell plating, assay plates were placed into tissue culture incubator at 37° C./5% CO2 overnight. The next day one assay plate for each cell line was used for a Day 0 Cell Titer Glo and PrestoBlue readout. 3 μl of PrestoBlue Cell Viability Reagent (Thermo Scientific, Catalog #A13262) was added to each well and then assay plates were incubated at 37° C./5% CO2 for 30 minutes prior to fluorescence readout on the EnVision 2105 multimode plate reader (Perkin Elmer). Following the PrestoBlue readout 18 μl of Cell Titer Glo (Promega, Catalog #G7572) was then added to each well, allowing plates to incubate at room temperature for 10 minutes prior to luminescence readout on the EnVision. Compound was then added to the remaining assay plates (each cell line run in triplicates) using the Labcyte Inc Echo 555 acoustic liquid handler. Compounds were arrayed into a Labcyte Inc Echo qualified 384 well LDV microplate (Cat #LP-0200-GNF10). Compounds were serially diluted 1:3.16 to generate an 8 point dose response for a final top concentration of 1 μM. DMSO (0.3%) was used as the neutral control (NC) and MG132 (30 μM) was used as the active control (AC). 90 nl of compounds were added to 30 μl of cells using the Labcyte Inc Echo 555 acoustic liquid handler for a final DMSO assay concentration of 0.3%. Following compound addition, assay plates were spun down in a tabletop centrifuge at 500 rpm for 1 minute and then placed into tissue culture incubator at 37° C./5% CO2 for 72 h. Following the 72 h incubation, all assay plates were readout using PrestoBlue and Cell Titer Glo using the same conditions previously described for the Day 0 readout. The Day 0 readout (untreated cells) was used to compare to the 72 h DMSO treated samples on each assay plate as a way of tracking each cell line's fold growth. NC1 control based normalization was used for data analysis in Helios, which incorporates the DMSO neutral control (NC) and MG132 active control (AC) for generating dose response curves that are then used to calculate the Absolute Qualified AC50 calls for each compound and cell line.
(§5) NC1 normalization calculation model: NC1: xn=±(x−NC)/(AC−NC)
(§6) +/− is set by the inhibition type parameter setting where NC and AC are averages (mean or median) over the corresponding NC and AC well values. The Qualified Absolute AC50 values for Compound 36 and Compound 40 are listed in the table below and are represented as the average activity in both the PrestoBlue and Cell Titer Glo assay readouts.
(§7) Absolute Qualified AC50 Values Listed Below are a Representation of Each Compounds' Average Activity in Both the PrestoBlue and Cell Titer Glo Assay Readouts.

ChaGo-K-1 = test: Expanded lung cancer cell line proliferation assay; settings: Homo sapiens; ChaGo-K-1, 72 h, average of PrestoBlue and Cell Titer Glo; AKR1C3 1.5 TPM; read-out: Absolute Qualified AC50
Source text: as §1, §2, §3, §4, §5, §6, §7

BEN = test: Expanded lung cancer cell line proliferation assay; settings: 72 h, average of PrestoBlue and Cell Titer Glo, AKR1C3 2573.5 TPM, read-out: Absolute Qualified AC50
Source text: as §1, §2, §3, §4, §5, §6, §7

HCC2108 = test: Expanded lung cancer cell line proliferation assay; settings: HCC2108, 72 h, average of PrestoBlue and Cell Titer Glo; AKR1C3 0.5 TPM; read-out: Absolute Qualified AC50
Source text: as §1, §2, §3, §4, §5, §6, §7

NCI-H661 = test: Expanded lung cancer cell line proliferation assay; settings: Homo sapiens; NCI-H661, 72 h, average of PrestoBlue and Cell Titer Glo; AKR1C3 3 TPM; read-out: Absolute Qualified AC50
Source text: as §1, §2, §3, §4, §5, §6, §7

NCI-H2286 = test: Expanded lung cancer cell line proliferation assay; settings: Homo sapiens; NCI-H2286, 72 h, average of PrestoBlue and Cell Titer Glo; AKR1C3 0.9 TPM; read-out: Absolute Qualified AC50
Source text: as §1, §2, §3, §4, §5, §6, §7

[1] = system: Hara (NRF2 pathway wild type cell line with low AKR1C3 expression); test: In vitro cell proliferation assay (CellTiter-Glo), Hara; settings: 72 h; Hara cells, 3 days, CellTiter-Glo, top concentration 10 μM; read-out: HARA Qualified absolute AC50
Method in brief: (§8)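 Luminescent CellTiter-Glo readout after 3-day compound exposure at 37 °C; 8-point 1:5 series, top 10 μM final. Seeding: 800 cells/well for H460, 2000 cells/well for Hara, RPMI-1640 plus 10% FBS. AC50 and percentage activity derived after normalizing to DMSO (1%) and MG132 (30 μM) controls.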

[2] = system: H460 (NRF2 pathway mutant cell line with high AKR1C3 expression); test: In vitro cell proliferation assay (CellTiter-Glo), H460; settings: Homo sapiens, NCI-H460, 72 h; H460 cells, 3 days, CellTiter-Glo, top concentration 10 μM; read-out: H460 Qualified absolute AC50
Method in brief: as §8

| SMILES | AC50 (SBC5) | AC50 (ChaGo-K-1) | AC50 (BEN) | AC50 (HCC2108) | AC50 (NCI-H661) | AC50 (NCI-H2286) | AC50 [1] | AC50 [2] |
| --- | --- | --- | --- | --- | --- | --- | --- | --- |
| CN1c2ccc(F)cc2C(=O)CC12CCN(C(=O)NCc1ccc(F)c(NCCO)c1)CC2 [Example 36, 6′-fluoro-N-(4-fluoro-3-((2-hydroxyethyl)amino)benzyl)-1′-methyl-4′-oxo-3′,4′-dihydro-1′H-spiro[piperidine-4,2′-quinoline]-1-carboxamide] | > 1000 nM | > 1000 nM | 399 nM | > 1000 nM | > 1000 nM | > 1000 nM | 1560 nM | 78 nM |
| O=C1CC2(CCN(C(=O)NCc3ccc(F)cc3)CC2)Nc2ccc(F)cc21 [Example 40] | > 1000 nM | > 1000 nM | 57 nM | > 1000 nM | > 1000 nM | > 1000 nM | 1790 nM | 83 nM |
